According to patent publication US9783590B2 (priority 2003, dated 2017):

Key:
human subjects = assay: PTC phenotype determination (blinded sorting taste threshold test); assay type: in vivo
Description: Subjects began tasting a solution of 1 micromolar PTC (solution #14) and proceeded in 2-fold increasing concentration increments (solutions 13, 12, 11 . . . ) until a bitter taste was perceived. Subjects then performed a blinded sorting test containing 3 cups of PTC solution and 3 cups of water. Raw taste threshold was the most dilute solution at which the subject could correctly sort all 6 cups. We also included a quinine threshold measurement according to Blakeslee & Salmon (Proc. Natl. Acad. Sci. USA 21, 84, 1935) to identify and exclude individuals with general deficits in bitter taste (aguesia). For dichotomous assignment of phenotype, we considered individuals unable to taste PTC before solution #6, i.e. at concentrations less than 267 micromolar PTC, to be non-tasters. Although the classic method includes corrections for age and sex, analysis of our raw PTC taste threshold data indicated only a modest sex effect, with females more sensitive than males (p=0.00324, proportion of variance explained=5.1%). No effect of age on PTC scores was observed. As a result, raw PTC threshold scores were used for all analyses.
The Utah C.E.P.H. families were enrolled in conjunction with the Utah Genetic Reference Project under University of Utah IRB approved protocol #6090-96, and consisted of individuals of Northern European ancestry. Subjects in the NIH replication sample were enrolled under NIH/NINDS IRB approved protocol # DC-01-230, and were of European, Asian, African American, and Native American ancestry. Human Diversity Panel DNAs (sub-Saharan African, Asian, and Southwest Native American) and primate DNAs were obtained from the Coriell Cell Repository, Camden, N.J. The Utah sample consists of 27 families comprising 269 individuals; both haplotype and phenotype information was available for 180 of these individuals. The NIH replication sample of consisted of 85 unrelated individuals of known haplotype and phenotype; 51 were European, 5 Pakistani, 23 East Asian, and 6 African-American. One African-American is not considered in the analysis due to a rare AAV/AAI diplotype. H is raw PTC score is 7.

T2R16 = molecular target: T1, T2R16 (Homo sapiens, UniProt Q9NYV7); conditions: in vitro cell based assays, Bufe et al. 2002; cited from earlier work
T1 sequence (Q9NYV7 1-291): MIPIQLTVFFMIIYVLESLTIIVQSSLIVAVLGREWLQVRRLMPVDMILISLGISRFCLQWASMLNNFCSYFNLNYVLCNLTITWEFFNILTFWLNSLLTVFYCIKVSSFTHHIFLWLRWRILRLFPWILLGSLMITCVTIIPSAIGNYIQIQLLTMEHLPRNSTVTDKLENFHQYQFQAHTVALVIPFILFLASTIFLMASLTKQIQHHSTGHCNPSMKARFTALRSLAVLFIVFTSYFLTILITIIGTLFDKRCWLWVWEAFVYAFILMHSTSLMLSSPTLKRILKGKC

SMILES | mean PTC score (human subjects; AVI homozygotes, NIH sample) | mean PTC score (human subjects; AVI homozygotes, Utah sample) | mean PTC score (human subjects; PAV heterozygotes, NIH sample) | mean PTC score (human subjects; PAV heterozygotes, Utah sample) | mean PTC score (human subjects; PAV homozygotes, NIH sample) | mean PTC score (human subjects; PAV homozygotes, Utah sample, score = number of most dilute solution correctly sorted (#14 = 1 micromolar, 2-fold steps)) | raw PTC score (human subjects; one subject, AAV/AAI diplotype, NIH sample) | receptor response to tastant (T2R16)
NC(=S)Nc1ccccc1 [PTC, phenylthiocarbamide] | 1.86 | 4.31 | 8.81 | 9.65 | 10.00 | 10.69 | 7 | 
OCc1ccccc1O[C@@H]1O[C@H](CO)[C@@H](O)[C@H](O)[C@H]1O [salicin] |  |  |  |  |  |  |  | responds
